Measurements as given in patent US11866414B2, “Substituted heterocyclic compounds” (BRISTOL-MYERS SQUIBB COMPANY, priority 2021, dated 2024).

Tests used:
[1] = test system: IFNα-induced STAT phosphorylation (pSTAT5); test: IFNα-induced STAT phosphorylation in human whole blood; format: cell-based; details: 1 h compound, 1000 U/mL IFNα A/D 15 min, CD3 positive population, read-out: Human Whole blood IFNa pSTAT5 IC50
Procedure: IFNα-Induced STAT Phosphorylation in Human Whole Blood
After an hour long incubation with compound, human whole blood (drawn with ACD-A as anticoagulant) was stimulated with 1000 U/mL recombinant human IFNα A/D (R&D Systems 11200-2) for 15 min. The stimulation was stopped by adding Fix/Lyse buffer (BD 558049). Cells were stained with a CD3 FITC antibody (BD 555916), washed, and permeabilized on ice using Perm III buffer (BD 558050). Cells were then stained with an Alexa-Fluor 647 pSTAT5 (pY694) antibody (BD 612599) for 60 min prior to analysis on the iQue Plus. The amount of pSTAT5 expression was quantitated by median fluorescence intensity after gating on the CD3 positive population.

[2] = in vitro; details: human, Caco-2, pH 7.4

| Structure (SMILES) | IC50 [1] | Papp A→B at 2 h, 3 μM [2] | efflux ratio at 2 h, 3 μM [2] |
| --- | --- | --- | --- |
| [2H]C([2H])([2H])NC(=O)c1nnc(NC(=O)C2CC2)cc1Nc1cccc(-c2nn(C3CC3)nc2C)c1OC [Example 27, 6-(cyclopropanecarboxamido)-4-((3-(2-cyclopropyl-5-methyl-2H-1,2,3-triazol-4-yl)-2-methoxyphenyl)amino)-N-(methyl-d3)pyridazine-3-carboxamide] | 0.21 µM | 20.5 ×10⁻⁶ cm/s | 0.8 |
| [2H]C([2H])([2H])NC(=O)c1nnc(NC(=O)C2CC2(F)F)cc1Nc1cccc(-c2cnn(C)n2)c1OC (stereo not drawn) [Example 31, 6-(2,2-difluorocyclopropane-1-carboxamido)-4-((2-methoxy-3-(2-methyl-2H-1,2,3-triazol-4-yl)phenyl)amino)-N-(methyl-d3)pyridazine-3-carboxamide] | 0.11 µM | 31.3 ×10⁻⁶ cm/s | 0.8 |
| [2H]C([2H])([2H])NC(=O)c1nnc(NC(=O)C2CC2)cc1Nc1cc(C(=O)OC)cc(-c2cnn(C)n2)c1OC [Example 32, methyl 3-((6-(cyclopropanecarboxamido)-3-((methyl-d3)carbamoyl)-pyridazin-4-yl)amino)-4-methoxy-5-(2-methyl-2H-1,2,3-triazol-4-yl)benzoate] | 0.22 µM | 19.5 ×10⁻⁶ cm/s | 0.9 |
| [2H]C([2H])([2H])NC(=O)c1nnc(NC(=O)C2CC2)cc1Nc1ccc(C)c(-c2cnn(C)n2)c1OC [Example 33, 6-(cyclopropanecarboxamido)-4-((2-methoxy-4-methyl-3-(2-methyl-2H-1,2,3-triazol-4-yl)phenyl)amino)-N-(methyl-d3)pyridazine-3-carboxamide] | 0.08 µM | 34.5 ×10⁻⁶ cm/s | 0.8 |
| [2H]C([2H])([2H])NC(=O)c1nnc(NC(=O)C2CC2(C)C)cc1Nc1nccc(-c2cnn(C)n2)c1OC (stereo not drawn) [Example 38, 6-(2,2-dimethylcyclopropane-1-carboxamido)-4-((3-methoxy-4-(2-methyl-2H-1,2,3-triazol-4-yl)pyridin-2-yl)amino)-N-(methyl-d3)pyridazine-3-carboxamide] | 0.44 µM | 33 ×10⁻⁶ cm/s | 0.4 |
| [2H]C([2H])([2H])NC(=O)c1nnc(NC(=O)[C@H]2C[C@H]2C)cc1Nc1nccc(-c2cnn(C)n2)c1OC [Example 40, 4-((3-methoxy-4-(2-methyl-2H-1,2,3-triazol-4-yl)pyridin-2-yl)amino)-N-(methyl-d3)-6-((1S,2R)-2-methylcyclopropane-1-carboxamido)pyridazine-3-carboxamide] | 0.04 µM | 25.9 ×10⁻⁶ cm/s | 0.8 |
| [2H]C([2H])([2H])NC(=O)c1nnc(NC(=O)[C@H]2C[C@@H]2C)cc1Nc1nccc(-c2cnn(C)n2)c1OC [Example 42, 4-((3-methoxy-4-(2-methyl-2H-1,2,3-triazol-4-yl)pyridin-2-yl)amino)-N-(methyl-d3)-6-((1S,2S)-2-methylcyclopropane-1-carboxamido)pyridazine-3-carboxamide] | 0.05 µM | 28.7 ×10⁻⁶ cm/s | 0.4 |
| [2H]C([2H])([2H])NC(=O)c1nnc(NC(=O)[C@@H]2C[C@@H]2F)cc1Nc1nccc(-c2cnn(C3CC3)n2)c1OC [Example 44, 4-((4-(2-cyclopropyl-2H-1,2,3-triazol-4-yl)-3-methoxypyridin-2-yl)amino)-6-((1S,2S)-2-fluorocyclopropane-1-carboxamido)-N-(methyl-d3)pyridazine-3-carboxamide] | 0.04 µM | 24.6 ×10⁻⁶ cm/s | 0.5 |
| [2H]C([2H])([2H])NC(=O)c1nnc(NC(=O)CCCF)cc1Nc1nccc(-c2cnn(C)n2)c1OC [Example 45, 6-(4-fluorobutanamido)-4-{[3-methoxy-4-(2-methyl-2H-1,2,3-triazol-4-yl)pyridin-2-yl]amino}-N—(^2H3)methylpyridazine-3-carboxamide] | 0.06 µM | 5.8 ×10⁻⁶ cm/s | 0.5 |

Continued, values first:

| IC50 [1] | Papp A→B at 2 h, 3 μM [2] | efflux ratio at 2 h, 3 μM [2] | Structure (SMILES) |
| --- | --- | --- | --- |
| 0.06 µM | 1.9 ×10⁻⁶ cm/s | 1.2 | [2H]C([2H])([2H])NC(=O)c1nnc(Nc2ccn(C)n2)cc1Nc1cccc(-c2cnn(C)n2)c1OC [Example 25, 4-((2-methoxy-3-(2-methyl-2H-1,2,3-triazol-4-yl)phenyl)amino)-N-(methyl-d3)-6-((1-methyl-1H-pyrazol-3-yl)amino)pyridazine-3-carboxamide] |
| 0.06 µM | 33.4 ×10⁻⁶ cm/s | 0.6 | [2H]C([2H])([2H])NC(=O)c1nnc(NC(=O)[C@@H]2C[C@@H]2C)cc1Nc1cccc(-c2cnn(C)n2)c1OC [Example 26, 4-((2-methoxy-3-(2-methyl-2H-1,2,3-triazol-4-yl)phenyl)amino)-N-(methyl-d3)-6-((1R,2S)-2-methylcyclopropane-1-carboxamido)pyridazine-3-carboxamide] |
| 0.37 µM | 28 ×10⁻⁶ cm/s | 0.5 | [2H]C([2H])([2H])NC(=O)c1nnc(NC(=O)OCC)cc1Nc1cccc(-c2cnn(C)n2)c1OC [Example 28, ethyl (5-((2-methoxy-3-(2-methyl-2H-1,2,3-triazol-4-yl)phenyl)amino)-6-((methyl-d3)carbamoyl)pyridazin-3-yl)carbamate] |
| 0.05 µM | 37.9 ×10⁻⁶ cm/s | 0.5 | [2H]C([2H])([2H])NC(=O)c1nnc(NC(=O)[C@@H]2C[C@H]2F)cc1Nc1cccc(-c2cnn(C)n2)c1OC [Example 29, 6-((1S,2R)-2-fluorocyclopropane-1-carboxamido)-4-((2-methoxy-3-(2-methyl-2H-1,2,3-triazol-4-yl)phenyl)amino)-N-(methyl-d3)pyridazine-3-carboxamide] |
| 0.06 µM | 29.9 ×10⁻⁶ cm/s | 0.7 | [2H]C([2H])([2H])NC(=O)c1nnc(NC(=O)[C@H]2C[C@H]2C)cc1Nc1cccc(-c2cnn(C)n2)c1OC [Example 30, 4-((2-methoxy-3-(2-methyl-2H-1,2,3-triazol-4-yl)phenyl)amino)-N-(methyl-d3)-6-((1S,2R)-2-methylcyclopropane-1-carboxamido)-pyridazine-3-carboxamide] |
| 0.16 µM | 20.9 ×10⁻⁶ cm/s | 0.3 | [2H]C([2H])([2H])NC(=O)c1nnc(NC(=O)C2CC2)cc1Nc1cc(C(=O)OC(C)C)cc(-c2cnn(C)n2)c1OC [Example 34, isopropyl 3-((6-(cyclopropanecarboxamido)-3-((methyl-d3)carbamoyl)pyridazin-4-yl)amino)-4-methoxy-5-(2-methyl-2H-1,2,3-triazol-4-yl)benzoate] |
| 0.02 µM | 42.9 ×10⁻⁶ cm/s | 0.6 | [2H]C([2H])([2H])NC(=O)c1nnc(NC(=O)C2CC2)cc1Nc1cc(COC)cc(-c2cnn(C)n2)c1OC [Example 35, 6-(Cyclopropanecarboxamido)-4-((2-methoxy-5-(methoxymethyl)-3-(2-methyl-2H-1,2,3-triazol-4-yl)phenyl)amino)-N-(methyl-d3)pyridazine-3-carboxamide] |
| 0.42 µM | 18.8 ×10⁻⁶ cm/s | 0.4 | [2H]C([2H])([2H])NC(=O)c1nnc(NC(=O)N(C)C)cc1Nc1nccc(-c2cnn(C)n2)c1OC [Example 39, 6-(3,3-dimethylureido)-4-((3-methoxy-4-(2-methyl-2H-1,2,3-triazol-4-yl)pyridin-2-yl)amino)-N-(methyl-d3)pyridazine-3-carboxamide] |
| 0.28 µM | 13.4 ×10⁻⁶ cm/s | 0.6 | [2H]C([2H])([2H])NC(=O)c1nnc(NC(=O)[C@@H]2C[C@H]2CC)cc1Nc1nccc(-c2cnn(C)n2)c1OC [Example 43, 6-((1R,2R)-2-ethylcyclopropane-1-carboxamido)-4-((3-methoxy-4-(2-methyl-2H-1,2,3-triazol-4-yl)pyridin-2-yl)amino)-N-(methyl-d3)pyridazine-3-carboxamide] |
| 0.01 µM | 38.1 ×10⁻⁶ cm/s | 0.4 | [2H]C([2H])([2H])NC(=O)c1nnc(NC(=O)C2CC2)cc1Nc1nc(C)cc(-c2cnn(C)n2)c1OC [Example 46, 6-(cyclopropanecarboxamido)-4-((3-methoxy-6-methyl-4-(2-methyl-2H-1,2,3-triazol-4-yl)pyridin-2-yl)amino)-N-(methyl-d3)pyridazine-3-carboxamide] |
| 0.11 µM | 34 ×10⁻⁶ cm/s | 0.3 | [2H]C([2H])([2H])NC(=O)c1nnc(NC(=O)[C@@H]2C[C@H]2C)cc1Nc1nc(C)cc(-c2cnn(C)n2)c1OC [Example 47, 4-((3-methoxy-6-methyl-4-(2-methyl-2H-1,2,3-triazol-4-yl)pyridin-2-yl)amino)-N-(methyl-d3)-6-((1R,2R)-2-methylcyclopropane-1-carboxamido)pyridazine-3-carboxamide] |
| 6.8 µM | 30.1 ×10⁻⁶ cm/s | 0.3 | [2H]C([2H])([2H])NC(=O)c1nnc(NC(=O)[C@H]2C[C@@H]2C)cc1Nc1nc(C)cc(-c2cnn(C)n2)c1OC [Example 48, 4-((3-methoxy-6-methyl-4-(2-methyl-2H-1,2,3-triazol-4-yl)pyridin-2-yl)amino)-N-(methyl-d3)-6-((1S,2S)-2-methylcyclopropane-1-carboxamido)pyridazine-3-carboxamide] |
